The source of these data is patent US20210154271A1, “CORNEAL EPITHELIAL CELL CHEMOTAXIS PROMOTER” (SHIODA LIFE SCIENCE INC., priority 2018, published 2021).

For assay [1], the system named is model mice with injured corneas. Kind of assay: Instillation of PACAP receptor antagonists on model mice with injured corneas. The format is in vivo, mouse. The text has this: Next, to investigate which types of receptors are involved in healing-promoting effects of injured corneas by PACAP, the inventors performed an instillation experiment of PACAP receptor antagonists (PACAP6-38, VIP6-28). PACAP6-38 is an antagonist of PAC1R and VPAC2R. VIP6-28 is an antagonist of VPAC1R and VPAC2R.
In addition to the same operations as the instillation experiment in Example 5, PACAP6-38 (antagonist) (10^−9 M) or VIP6-28 (antagonist) (10^−9 M) was instilled immediately before instillation of PACAP and saline. Instillation of PACAP and saline ware performed every 2 hours.
Following four groups were created; the saline-only-instilled group, the PACAP-only-instilled group, the group instilled saline and an antagonist simultaneously, the group instilled PACAP and an antagonist simultaneously.
FIG. 10A is the result of PACAP6-38, and FIG. 10B is the result of VIP6-28. In FIG. 10, “saline” indicates the saline-only-instilled group. “PACAP” indicates the PACAP-only-instilled group. “PACAP6-38” or “VIP6-28” indicates the group instilled saline and an antagonist simultaneously. “PACAP6-38+PACAP” or “VIP6-28+PACAP” indicates the group instilled PACAP and an antagonist simultaneously.
As well as FIG. 9C, the area of the injured site of the cornea immediately after injury to the cornea (0 hour) is set as 100%.

Assay [2] has as its system HCEC-II cells. In words: Analysis of cell growth ability (MTT-assay). Type of assay: cell-based, human. The protocol: (§1) Normal human corneal epithelial cells HCEC-II (manufactured by Kurabo Industries Ltd.) were cultured in an OcuLifeBM medium containing OcuLifeLifeFactor (both manufactured by Kurashiki Spinning Co., Ltd.) at 37° C., in the presence of 5% CO2.
HCEC-II cells were seeded in 96-well plates and cultured for 24 h. Subsequently, PACAP alone, or PACAP and AraC (cytarabine) were added. AraC (cytarabine) is a cytostatic agent. After the addition of these agents, the cell growth ability was analyzed by measuring the number of live cells from the value of absorbance at 570 nm using MTT cell growth kit I (manufactured by Roche Life Science Co., Ltd.). The reference wavelength was set at 650 nm.
The effects of PACAP are either due to 1) promoting cell growth, 2) promoting cell chemotaxis, or 3) promoting both cell growth and chemotaxis. To elucidate which of these could be caused, cell growth on days 1 and 4 after adding various concentrations of PACAP (10^−9 M to 10^−13 M) were analyzed by MTT-assay.

Assay [3] deals with model mice with injured corneas. Kind of assay: PACAP instillation on model mice with injured corneas. Type of assay: in vivo, mouse (C57BL/6J). How it is done: To study the healing effects of PACAP instillation on an injured site of a corneal, the inventors created model mice with injured corneas. Injured sites were created by marking a cornea of a mouse (C57BL/6J, male, 8-12 weeks old) with a 1-mm-diameter biopsy punch and detaching corneal epithelia within the marks with tweezers. At the injured sites, 2 μL of 10^−9 M PACAP, 10^−11 M PACAP, 10^−13 M PACAP, or saline was instilled every 2 hours for a total of seven times up to 12 hours later. In addition, the injured sites were visualized by instilling 2 μL of 0.1% fluorescein (a fluorescent colorant) in a total of 3 times after 0, 12, and 24 hours, and photographing was performed.
In addition, eyeballs at after 0 and 12 hours were removed, and tissue sections were made after paraffin embedding, followed by hematoxylin and eosin staining (HE staining). From the captured fluorescent images, by using image analysis software (ImageJ), the area and the outer periphery of injured sites of corneas were measured when saline was instilled and when PACAP of the respective concentrations were instilled.
(§2) The area of the injured site of the cornea immediately after injury to the cornea (0 hour) is set as 100%.

Assay [4] has as its system Normal human corneal epithelial cells HCEC-II. Kind of assay: Scratch assay on HCEC-II cells. The format is cell-based. The protocol: as §1
Wound-healing-promoting effects of PACAP were evaluated by scratch assay. HCEC-II cells were seeded in 24-well plates, cultured, and then wounded by a CELL Scratcher scratch stick (manufactured by Asahi Glass Co., Ltd.) (between a dotted line and a dotted line in FIG. 1).
Immediately after wounding, PACAP38 alone or PACAP38 and AraC were added, and cells infiltrating the wounded area were observed.
(§3) Outcomes of scratch assay and BrdU labeling were evaluated as following. Images were acquired by BZ-X700 (Keyence Inc.), and then quantitatively analyzed using the analysis applications (hybrid cell counts, macro cell counts) (Keyence Inc.).

For assay [5], the system named is SV40-human corneal epithelial cell line (HCEC). Kind of assay: In vitro scratch assay on monolayer sheets of human corneal cultured cells. Type of assay: cell-based. Particulars: 10^−11 M PACAP, 6 hours after scratching, vs PBS-treated control group (FIG. 12B). The protocol:
To evaluate the corneal healing effects of PACAP in vitro, a scratch assay was performed using a human corneal epithelial cell line. A SV40-human corneal epithelial cell line (HCEC) was purchased from the Human Science Research Resource Bank (Health Science Research Resources Bank). Cells were cultured in a medium containing DMEM, 1×antibiotic-antifungal agent (manufactured by Thermo Fisher Scientific Co., Ltd.), and 10% fetal bovine serum (FBS). Cultures were performed at 37° C. in the presence of 5% CO2.
In invasion assays, a floating HCEC with 10^6 cells was seeded in 12-well plates. After 2 days of incubation, the confluent cell layer was cross-shaped wounded with plastic sticks. PBS or various types of PACAP (final concentrations: 10^−15 M, 10^−13 M, 10^−11 M, 10^−9 M, and 10^−7 M) were added to […]. Scratch sites (wounded sites) were photographed by Nicon Biostation CT (Nikon Co., Ltd.) at regular intervals. Areas of the scratch sites were measured by CL-Quant software (made by Nikon Inc.).
The area of the scratch site immediately after the scratch (0 hour) is set as 100%.

In assay [6] the test system is eye of a rabbit with detached corneas. The settings on record: PACAP administered to eye, in comparison with controls; cited from earlier work.
Assay [7] has as its system mice with lacrimal glands removed. In words: Tear secretion by the cotton thread method. Type of assay: in vivo, mouse. The settings on record: mice with lacrimal glands removed (not shown in figures). The text has this:
(§4) First, mice with lacrimal glands removed were generated. Under inhalation anesthesia with sevoflurane, the extraorbital lacrimal glands and lacrimal ducts of mice were removed. Both lacrimal glands were removed after the lacrimal ducts were removed to expose the intraorbital lacrimal glands. Then the skin was sutured and the mice were kept warm until awaking from anesthesia. The amount of tear secretion in mice before and after removal of lacrimal glands was confirmed by the cotton thread method.

For assay [8], the system named is HCEC-II cells. Kind of assay: BrdU labeling of dividing cells. The format is cell-based, human. The settings on record: 18 hours after adding PACAP (FIGS. 4A, 4B and 5). How it is done:
Post-wounding dividing cells were observed by labeling with BrdU Labeling and Detection Kit I (Roche).
as §3

The test system of assay [9] is mice with lacrimal glands removed, injured corneas. Kind of assay: Corneal healing in mice with lacrimal glands removed. Type of assay: in vivo, mouse. The settings on record: LG−PACAP vs LG−saline, 10^−11 M PACAP, 12 hours after injuring, p<0.05 (FIG. 11).
Excerpt: as §4
FIG. 11 is a graph showing the measurement result of the area of injured sites of corneas (fluorescent area) of upon administration of saline or PACAP at 0, 12, and 24 hours after injuring of corneas of mice. The method and the frequency of administration of saline or PACAP were the same as in Example 5.
as §2
In FIG. 11, “LG+saline” indicates the result of saline administration to mice without lacrimal glands removed. “LG+PACAP” indicates the result of PACAP administration to mice without lacrimal glands removed. “LG−saline” indicates the result of saline administration to mice with lacrimal glands removed. “LG−PACAP” indicates the result of PACAP administration to mice with lacrimal glands removed. The concentration of PACAP is 10^−11 M.

Setting [10] is: 10^−9 M PACAP and 15 μM AraC (FIG. 1A to C).

Ends that are not written are not given here.

Consider “VIP6-28: PACAP receptor antagonist; antagonist of VPAC1R and VPAC2R (FTDNYTRLRKQMAVKKYLNSILN; ends and bridges not checked; UniProt P01282 130-152, looked up, fragment)”, for which, in assay [1] (antagonist 10^−9 M instilled with PACAP (FIG. 10B)), the “effect of antagonist on PACAP-induced healing of injured corneas” value is given as “not suppressed”.
Consider `Nc1ccn([C@@H]2O[C@H](CO)[C@@H](O)[C@@H]2O)c(=O)n1` [AraC, cytarabine, reference compound], for which, in assay [2] (15 μM AraC), the “effect of AraC on the cell-growth-promoting effects of PACAP” value was “almost completely suppressed”.
With “PACAP: Pituitary Adenylate Cyclase-Activating Polypeptide; PACAP38, 38 amino acid residues (Peptide Research Institute, Osaka) (HSDGIFTDSYSRYRKQMAVKKYLAAVLGKRYKQRVKNK; ends and bridges not checked; UniProt P18509 132-169, looked up)”, the “area of the injured site of the cornea (fluorescent area)” value was “significantly smaller” in [3] (10^−9 M PACAP instilled, 12 hours after injuring, vs saline group (FIG. 9C)); “significantly smaller” in [3] (10^−11 M PACAP instilled, 12 hours after injuring, vs saline group (FIG. 9C)); “significantly smaller” in assay [3] (all concentrations (10^−9, 10^−11, 10^−13 M), 24 hours after injuring, p<0.01 vs saline group (FIG. 9C)). Further, the “periphery of the injured site of the cornea” value was “significantly smaller” in assay [3] (10^−9 M PACAP instilled, 12 hours after injuring, vs saline group (not shown in figures)); “significantly smaller” in [3] (10^−11 M PACAP instilled, 12 hours after injuring, vs saline group (not shown in figures)); “significantly smaller” in assay [3] (all concentrations, 24 hours after injuring (not shown in figures)). Further, the “size of injured sites of corneas (fluorescence image)” value in assay [3] (12 and 24 hours after injuring, PACAP-instilled vs saline-instilled group (FIG. 9A)) is “became smaller than those of the saline-instilled group”. In addition, the “corneal epithelium in HE staining” value in [3] (12 hours after instillation (FIG. 9B)) is “the corneal epithelium was restored”. Also, the “most effective concentration of PACAP” value in assay [3] (instillation, injured cornea area) was 10^−11 M. In [4] (setting [10]), the “cell-infiltration compared with 10^−9 M PACAP alone” value is on record as “less”. For the same molecule, the “cell-infiltration compared with controls” value in assay [4] (setting [10]) is “increased more than in controls”. Besides, the “area of the wounded site at 18 h” value was “increased” in [4] (10^−9 M PACAP in the presence of 15 μM AraC, compared to the control (FIG. 6)) and “reduced” in assay [4] (10^−11 M PACAP in the presence of 15 μM AraC (FIG. 6)). Also, the “cellular infiltrates at the wounded site” value in [4] (10^−9 M PACAP, 4 days post-wounding, compared to controls (FIG. 1A, B)) is listed as “more cellular infiltrates were observed at the wounded site”. For the same molecule, the “area of the wounded site” value in assay [4] (10^−9 M PACAP, compared to controls (FIG. 2, 18 h)) is “reduced”. Moreover, the “area of the scratch site” value in assay [5] was “significantly reduced”. Also, the “restoration of corneal epithelium” value in assay [6] is given as “accelerated”. Also, the “cell growth by MTT-assay” value is “cells grew at any concentration” in [2] (1 day after addition, 10^−9 M to 10^−13 M PACAP, relative to cells with no PACAP (FIG. 3)) and “the effect was remarkable” in assay [2] (4 days after addition, 10^−9 M to 10^−13 M PACAP (FIG. 3)). In assay [7], the “tear secretion after instillation” value is on record as “did not promote tear secretion”. Besides, the “number of BrdU positive (dividing) cells” value in assay [8] is on record as “an increase of number of BrdU positive cells”. Besides, in assay [9], the “area of injured sites of corneas (fluorescent area)” value is recorded as “became significantly smaller”.
Take “PACAP6-38: PACAP receptor antagonist; antagonist of PAC1R and VPAC2R (FTDSYSRYRKQMAVKKYLAAVLGKRYKQRVKNK; ends and bridges not checked; UniProt P18509 137-169, looked up, fragment)”: in [1] (antagonist 10^−9 M instilled with PACAP, 12 hours after injuring, vs PACAP-only group, p<0.05 (FIG. 10A)), the “effect of antagonist on PACAP-induced healing of injured corneas” value was “significantly suppressed”.
